Laboratory results reported in article PMC6270994, “The Hydractinia echinata Test-System. III: Structure-Toxicity Relationship Study of Some Azo-, Azo-Anilide, and Diazonium Salt Derivatives” (Molecules, 2014).
Like-named read-outs stand apart in the source and are kept apart here.

System: Hydractinia echinata
Assay: Hydractinia echinata test system (HeTS): reduction of Cs+-induced metamorphosis of larvae
Type: in vivo
Settings: for EC50: Hydractinia echinata
Protocol: The average (C) concentrations of these values were calculated too. The MRC50 value calculations (Chicu et al.) result from the graphical representation of the metamorphosis variation, M (%), (Y axis) function of the xenobiotic’s concentration (mol/L) (X axis), where the metamorphosis decreases with the rise of the xenobiotic’s concentration. Thus, the MRC50 value represents the xenobiotic’s concentration (mol/L) necessary for a 50% decrease of metamorphosis, with respect to control.
For each concentration of substance experiments were performed in triplicate and were repeated at least twice.
Colonies of H. echinata (Biologische Anstalt, Helgoland, Germany) were used to obtain eggs and larvae. The culture medium was artificial seawater (980 mosmol, pH 8.2, 18 °C). In laboratory an artificial metamorphosis can be synchronically started by the introduction of Cs^+ ions or by using seawater without Mg^2+ ions; it then lasts only 24 h. Under the action of external stimulus of Cs^+ ions or Cs^+ ions together with the tested compounds, one part of larvae further lives as such and another one is metamorphosized to the polyp form. The evaluation of the influence of the tested substance is very clear this way, the proposed method being based on this aspect.
H. echinata larvae were exposed to seawater containing Cs^+ and simultaneously one of the test substances for 3 h. The percentage of animals that underwent metamorphosis (development into polyps) was determined after 24 h. […] We chose a concentration of inducers which caused about […] to three quarters of the larvae to metamorphose in order to have conditions which are highly sensitive against an inhibitory influence. […] This concentration was termed MRC50 (for Metamorphosis Reduction Concentration) and is similar to the effective EC50 concentration that gives half maximal effective response.

[1] = MRC50 in mol/L = concentration for 50% decrease of metamorphosis vs control, larvae exposed 3 h with Cs+, read after 24 h
[2] = MRC50 in mol/L = concentration for 50% decrease of metamorphosis vs control, larvae exposed 3 h with Cs+, read after 24 h, read-out: M: experimental Mlog(1/MRC50) (converted)
[3] = product of enzymatic reduction/hydrolysis of the dye
[4] = parent dye, Table 2, read-out: F(1+2+...)e experimental toxicity log(1/MRC50) (converted)

`O=S(=O)([O-])c1ccc2c(N=Nc3ccccc3[As](=O)(O)O)c(O)c(S(=O)(=O)[O-])cc2c1.[Na+].[Na+]` [Compound 40, Thorin] was tested, and the “M: experimental Mlog(1/MRC50)” value [1] was 3.46.
For `O=S(=O)([O-])c1cc(N=Nc2c(O)ccc3ccccc23)ccc1-c1ccc(N=Nc2c(O)ccc3ccccc23)cc1S(=O)(=O)[O-].[Na+].[Na+]` [Compound 87, Acid Red 97], the “M: experimental Mlog(1/MRC50)” value [1] was 4.11.
For `COc1cc(-c2ccc([N+]#N)c(OC)c2)ccc1[N+]#N` [Compound 94, Fast Blue B], the “M: experimental Mlog(1/MRC50)” value [1] was 4.30.
In the case of `O=C(Nc1ccc(N=Nc2c(O)ccc3ccccc23)cc1)c1ccc(N=Nc2ccc(O)c(C(=O)Nc3ccccc3)c2)cc1` [Compound 128, 2-Hydroxy-5-{2-[4-({4-[2-(2-hydroxynaphthalen-1-yl)diazen-1-yl]-phenyl}carbamoyl)-phenyl]diazen-1-yl}-N-phenylbenzamide], the EC50 [2] is reported as 53.7 µM.
Compound `O=C(O)c1cc2ccccc2c(N=Nc2ccc(C=Cc3ccc(N=Nc4c(O)c(C(=O)O)cc5ccccc45)cc3S(=O)(=O)O)c(S(=O)(=O)O)c2)c1O` [Compound 101, 4-{2-[4-(2-{4-[2-(3-Carboxy-2-hydroxy-naphthalen-1-yl)diazen-1-yl]-2-sulfophenyl}-ethenyl)-3-sulfo-phenyl]diazen-1-yl}-3-hydroxynaphthalene-2-carboxylic acid] has an EC50 [2] of 135 µM.
In the case of `Nc1ccc(/C=C/c2ccc(N)cc2S(=O)(=O)O)c(S(=O)(=O)O)c1` [ADASDS, diaminostilbene disulfonic acid], the “F(1), F(2),... individual log(1/MRC50) toxicity value” [3] is reported as 3.43.
In the case of `Nc1ccc(S(=O)(=O)O)cc1` [APABS, p-aminobenzenesulfonic acid], the “F(1), F(2),... individual log(1/MRC50) toxicity value” [3] is reported as 2.81.
For `COc1ccc(N)cc1` [p-Methoxy-aniline], the “F(1), F(2),... individual log(1/MRC50) toxicity value” (in vivo) was 3.32.
`O=S(=O)([O-])c1ccc(N=Nc2ccc(N=Nc3c(O)c(S(=O)(=O)[O-])cc4cc(S(=O)(=O)[O-])ccc34)c(S(=O)(=O)[O-])c2)cc1.[Na+].[Na+].[Na+].[Na+]` [Compound 69, Ponceau S] was tested, and the “M: experimental Mlog(1/MRC50)” value [1] was 3.97.
With `O=S(=O)([O-])c1ccc(N=Nc2ccc(N=Nc3c(O)ccc4ccccc34)c(S(=O)(=O)[O-])c2)cc1.[Na+].[Na+]` [Compound 68, Acid Red 66 (Biebrischer Scharlach)] the “M: experimental Mlog(1/MRC50)” value [1] was 3.95.
For `O=C(Nc1ccc(N=Nc2c(S(=O)(=O)O)cc3cc(NC(=O)c4ccccc4)ccc3c2O)cc1)c1ccc(N=Nc2ccc(O)c(C(=O)O)c2)cc1` [Compound 119, 5-{2-[4-({4-[2-(6-Benzamido-1-hydroxy-3-sulfonaphthalen-2-yl)diazen-1-yl]-phenyl}carbamoyl)phenyl]diazen-1-yl}-2-hydroxybenzoic acid], the EC50 [2] was 22.4 µM.
Compound `Nc1c(N=Nc2ccc([N+](=O)[O-])cc2)c(S(=O)(=O)O)cc2cc(S(=O)(=O)O)c(N=Nc3ccc(NC(=O)c4ccc(N=Nc5ccc(O)c(C(=O)O)c5)cc4)cc3)c(O)c12` [Compound 113, 5-[2-(4-{[4-(2-{8-Amino-1-hydroxy-7-[2-(4-nitrophenyl)diazen-1-yl]-3,6-disulfonaphthalen-2-yl}diazen-1-yl)-phenyl]carbamoyl}-phenyl)diazen-1-yl]-2-hydroxybenzoic acid] has an EC50 [2] of 112 µM.
For `O=[N+]([O-])c1ccc2c(N=Nc3ccc4ccccc4c3O)c(O)cc(S(=O)(=O)[O-])c2c1.[Na+]` [Compound 58, Eriochrom Black T], the “M: experimental Mlog(1/MRC50)” value [1] was 4.13.
With `O=S(=O)([O-])c1ccc(N=Nc2c(O)ccc3ccccc23)c2ccccc12.[Na+]` [Compound 56, Acid Red 88 (Fast Red AV)] the “M: experimental Mlog(1/MRC50)” value [1] was 3.31.
For `CC(=O)Nc1cc(S(=O)(=O)[O-])cc2cc(S(=O)(=O)[O-])c(N=Nc3ccccc3C)c(O)c12.[Na+].[Na+]` [Compound 43, Acid Red 35], the “M: experimental Mlog(1/MRC50)” value [1] was 3.63.
`Nc1ccc(/N=N/c2ccccc2C(=O)O)cc1C(=O)O` [Compound 5, 2-Amino-5-[(E)-2-(2-carboxyphenyl)diazen-1-yl]benzoic acid] gave an EC50 [2] of 26.3 µM.
With `CC(=O)Nc1cc(S(=O)(=O)[O-])cc2cc(S(=O)(=O)[O-])c(N=Nc3ccccc3)c(O)c12.[Na+].[Na+]` [Compound 42, Acid Red 1 (Azophloxin)] the “M: experimental Mlog(1/MRC50)” value [1] was 3.66.
`O=C(O)c1ccc(N=Nc2ccccc2)cc1` [Compound 2, 4-(2-Phenyldiazen-1-yl)benzoic acid] showed an EC50 [2] of 214 µM and an EC50 [4] of 214 µM.
In the case of `O=S(=O)([O-])c1cc(O)c2c(O)c(N=Nc3ccccc3)c(S(=O)(=O)[O-])cc2c1.[Na+].[Na+]` [Compound 41, Acid Red 29 (Chromotrope 2R)], the “M: experimental Mlog(1/MRC50)” value [1] is reported as 3.65.
With `Cc1ccc(N=Nc2c(O)c(S(=O)(=O)[O-])cc3cc(S(=O)(=O)[O-])ccc23)c(C)c1.[Na+].[Na+]` [Compound 38, Acid Red 26 (Ponceau Xilidine)] the “M: experimental Mlog(1/MRC50)” value [1] was 4.06.
With `Nc1c(N=Nc2ccc([N+](=O)[O-])cc2C(=O)O)c(S(=O)(=O)O)cc2cc(S(=O)(=O)O)c(N=Nc3ccc(NC(=O)c4ccc(N=Nc5ccc(O)c(C(=O)O)c5)cc4)cc3)c(O)c12` [Compound 114, 5-[2-(4-{[4-(2-{8-Amino-7-[2-(2-carboxy-4-nitrophenyl)diazen-1-yl]-1-hydroxy-3,6-disulfonaphthalen-2-yl}diazen-1-yl)phenyl]-carbamoyl}phenyl)-diazen-1-yl]-2-hydroxybenzoic acid] the EC50 [2] was 129 µM.
With `Cc1cc(-c2ccc(/N=N/c3ccc4c(S(=O)(=O)O)cc(S(=O)(=O)O)c(N)c4c3O)c(C)c2)ccc1/N=N/c1ccc2c(S(=O)(=O)O)cc(S(=O)(=O)O)c(N)c2c1O` [Compound 89, Direct Blue 53 (Evans Blue)] the EC50 [2] was 7.41 µM.
In the case of `CC1(C)Nc2cccc3c(N=Nc4ccc(N=Nc5ccccc5)c5ccccc45)ccc(c23)N1` [Compound 80, Sudan Black B (Solvent Black 3)], the “M: experimental Mlog(1/MRC50)” value [1] is reported as 4.20.
With `Cc1cccc(N=Nc2ccc(N=Nc3c(O)ccc4ccccc34)cc2C)c1` [Compound 64, Solvent Red 25 (Sudan Red B)] the “M: experimental Mlog(1/MRC50)” value [1] was 3.42.
With `O=C(O)c1ccc(/N=N/c2ccc(O)cc2O)cc1` [Compound 8, 4-[(E)-2-(2,4-dihydroxy-phenyl)diazen-1-yl]benzoic acid] the EC50 [2] was 490 µM and the EC50 [4] was 490 µM.
Fast Red B Salt [Compound 137] was tested, and the “M: experimental Mlog(1/MRC50)” value [1] was 5.25.
In the case of `Nc1ccc(C(=O)O)c(O)c1` [Ac p-AmS, p-aminosalicylic acid], the EC50 (read-out: F(1), F(2),... individual log(1/MRC50) toxicity value (converted)) is reported as 1070 µM.
For `Oc1ccc2ccccc2c1N=Nc1ccc(N=Nc2ccccc2)cc1` [Compound 65, Solvent Red 23 (Sudan III, Sudan V)], the “M: experimental Mlog(1/MRC50)” value [1] was 3.64.
With `Nc1c(N=Nc2ccc(NC(=O)c3ccc(N=Nc4ccc(O)c(C(=O)Nc5ccccc5)c4)cc3)cc2)cc(S(=O)(=O)O)c2ccccc12` [Compound 120, 4-Amino-3-{2-[4-(4-{2-[4-hydroxy-3-(phenyl-carbamoyl)phenyl]diazen-1-yl}benzamido)phenyl]-diazen-1-yl}naphthalene-1-sulfonic acid] the EC50 [2] was 25.1 µM.
